Where two headings read alike, the source gives them in different places.
What was measured:
cyclooxygenase = experiment: In vitro effect on [14C]arachidonic acid metabolism in a cell-free homogenate of murine pulmonary tissue; format: biochemical, CBA mice; settings: compound 10^−4 M, 37° C., 30 minutes
Method: Studies of arachidonic acid metabolism was carried out on females CBA mice who where fed a standard vivarium fodder. Animals (mice) were sacrificed, lungs were extracted, homogenized in a glass homogenizer manufactured by the firm “Wheaton” (USA) at 4° C. in 10 volumes of 0.05 M Tris-HCl buffer. Aliquots (0.5 ml) of supernatant were incubated in 0.5 μCi [1-C^14]-arachidonic acid [C^14]-AA, “Amersham”, England; specific activity 50-60 μCi/mmole) at 37° C. for 30 minutes. Non-metabolized [αC^14]-AA and products of metabolism thereof were extracted in 20 volumes of chloroform and methanol mixture (1:1) in extraction efficacy not less than 90% assessed using [C^14]-PGF2α. [C^14]-AA and metabolites thereof were separated and identified using TLC (the plates Kieselgel 60 of the “Merck” firm, Germany) using as an organic phase, the system of solvents (ethylacetate, isooctane, acetic acid, water—110:50:20:100) and labeled standards. Densitometry of autoradiochromograms obtained on the X-ray film X-Omat AR (“Kodak”, USA) and HS 11 (“ORWO”, Germany), was performed on the densiscan KS 3 (“Kipp and Zonnen”, Holland). Quantitative analysis of individual eicosanoids was carried out using radiometry of fractions obtained by high-performance liquid chromatography (the HPLC-system of the “Gilson” form, France; the column ZORBAX C8 of the “Du Pont” firm, USA) and by elution of spots on TLC-plates. The tested compounds were administered at concentration 10^−4 M.

"hot plate" test in mice = experiment: Analgetic activity on the model "hot plate"; format: in vivo, white mongrel mice; settings: 10 mg/kg; for response vs control in vivo at 10 mg/kg / change in vivo at 10 mg/kg: Mus musculus; for response vs control in vivo at 10 mg/kg / Latent time of NT (%): percent of background; for response vs control in vivo at 10 mg/kg: read-out: Latent time of NT (%); for change in vivo at 10 mg/kg: read-out: Analgesia (%)
Method: The tests were conducted on males of white mongrel mice weighing 22-24 grams. The animals were individually placed on a hot plate (manufactured by the firm “Ugo Basile”), a temperature of which remained constant and was equal to 55° C. The following first manifestations of pain reaction were recorded: licking paws, jumping up prior to administration of a substance (background parameters) and 0.5, 1, 2, 3 and 4 hours post administration of a substance. Substances were administered […] (using a probe). A weighed amount of a substance was thoroughly mixed in 0.1 ml Tween 80 until a solution was obtained, then normal saline was added up to a volume of 0.5 ml. Average latent time of nociception threshold (NT) was calculated in every group. The results obtained were expressed in percent of the background values. Analgetic effect (in %) was calculated according to the formula: A−100%=X, wherein A is a background parameter; X is analgetic effect (in %)
A is (time 0.5 to 4 hours post administration×100%): background time
As reference drugs, Analgin (150 mg/kg), Paracetamol (200 mg/kg), Ketorol (10 mg/kg), were used.

[1] = system: "acetic contortions" in mice; experiment: Analgetic activity on the model "acetic contortions"; format: in vivo, white mongrel mice; settings: dose 10 mg/kg (table title); for C ± m (the number of contortions for 15 minutes): 60 minutes prior to acetic acid
Method: (§1) The tests were conducted on males of white mongrel mice weighing 22-24 grams. The specific pain response (“contortions”) were elicited by intraperitoneal administration to mice of 0.75% acetic acid solution. The following signs were taken into consideration: the number of seizure contractions of abdominal muscles accompanied by stretching the hind limbs and sagging the back. Analgetic effect was assessed by decrease in the number of contortions in animals in percent to the control for 15 minutes post administration of acetic acid. The technique of the tests is disclosed in Koster R., Anderson M., de Beer B.//Fed. Proc. 1959. V. 18. P. 412. Compounds under testing were administered intraperitoneally (using a probe) at a dose 10 μg/kg 60 minutes prior to injection of the acid. Diclofenac (10 mg/kg) was used as a reference drug. Analgetic effect was calculated according to the formula: […]
wherein Ck is the number of contortions in the control group,
Co is the number of contortions in the test group.

mice, forced swimming = experiment: "Behavioral despair" test according to Porsolt; format: in vivo; settings: 50 mg/kg orally
Method: The “behavioral despair” test according to Porsolt [R. D. Porsolt, A. Bertin and M. Jalfre.//in mice: A primary Screening Test for Antidepressants. Arch. Int. Pharmacodyn., 1977, 229, p. 327-336] is a predictive test for drugs with antidepressant action.
Stress state in mice (weighing 27-30 grams) is induced by forced swimming. Animals are placed into a cylinder (height 25 cm, diameter 10 cm) filled to ⅓ with water at temperature 21-23° C. The animals cannot escape from the cylinder by themselves. Following a short time of activity the animals develop a so called “behavioral depression” characterized by hovering of animals, immobilization duration of which can be fixed. The experiment is carried out in two days. One a first day, animals are placed into the cylinder for 15 minutes (pre-test). After removal from water, the animals are dried and preparations under testing are administered. At 24 hours, the preparations are administered again and one hour later the animals are placed into the cylinder for 6 minutes. During first two minutes the animals are actively swimming; during the subsequent four minutes, behavioral depression develops manifested by immobilization (hovering) which is fixed for 4 minutes and is measure in seconds. Compound IX and the reference antidepressant drug Fluoxetin were administered orally at a dose 50 mg/kg.

[2] = system: "acetic contortions" in mice; experiment: Effect on analgetic action of Tramal and Analgin on the model "acetic contortions"; format: in vivo, white mongrel mice; settings: IX 10 mg/kg, Tramal 10 mg/kg, alone or combined
Method: as §1
The studies were carried out in accordance with the technique presented in Example 18.

[3] = 120 minutes post administration

Row | Compound | latent time of nociception threshold, M ± m ("hot plate" test in mice; 30 minutes post administration) | latent time of nociception threshold, M ± m ("hot plate" test in mice; 60 minutes post administration) | latent time of nociception threshold, M ± m ("hot plate" test in mice; [3]) | response vs control in vivo at 10 mg/kg ("hot plate" test in mice; 0.5 h, 30 minutes) | change in vivo at 10 mg/kg ("hot plate" test in mice; 0.5 h, 30 minutes) | response vs control in vivo at 10 mg/kg ("hot plate" test in mice; 1 h, 60 minutes) | change in vivo at 10 mg/kg ("hot plate" test in mice; 1 h, 60 minutes) | response vs control in vivo at 10 mg/kg ("hot plate" test in mice; 2 h, 120 minutes) | change in vivo at 10 mg/kg ("hot plate" test in mice; 2 h, 120 minutes) | C ± m (the number of contortions for 15 minutes) [1] | further results
1 | O=C(CCc1ccc(O)cc1)N[C@@H](Cc1ccc(O)cc1)C(=O)O [Compound XIV, 3-(p-hydroxyphenyl)-propionyltyrosine] | 5.59 ± 1.12 s | 4.7 ± 0.51 s | 7.3 ± 1.09 s | 150% | 50.3% | 126% | 26.3% | 196% | 96.2% |  | Prostanoids (cyclooxygenase; b308 reads these as % cyclooxygenase inhibition): −35; 6-keto-PGF1α (cyclooxygenase; change): −24; AA (arachidonic acid) (cyclooxygenase; change): +84; PGE2 (cyclooxygenase; change): −54; PGF2α (cyclooxygenase; change): −24; TXB2 (cyclooxygenase; change): −49; latent time of nociception threshold, M ± m ("hot plate" test in mice; 240 minutes post administration): 6.78 ± 0.504 s; response vs control in vivo at 10 mg/kg ("hot plate" test in mice; 4 h, 240 minutes): 182%; change in vivo at 10 mg/kg ("hot plate" test in mice; 4 h, 240 minutes): 82.3%
2 | CC(=O)N[C@@H](Cc1ccc(O)cc1)C(=O)NCCc1ccccc1 [Compound XXVIII, acetyltyrosylphenylethylamine] | 9.2 ± 1.8 s | 8.1 ± 1.0 s | 11.6 ± 2.5 s | 192% | 91.7% | 169% | 68.8% | 242% | 142% | 15.9 ± 2.4 | inhibition in vivo at 10 mg/kg ([1]; Mus musculus, ip, 0.25 h, read-out: Analgetic effect (%)): 42.1%; response vs control in vivo at 10 mg/kg ([1]; Mus musculus, ip, 0.25 h, read-out: C, % to the control): 57.9%
3 | O=C(CCc1ccccc1)N[C@@H](Cc1ccc(O)cc1)C(=O)OCc1ccccc1 [Compound XXX, 3-phenylproponyltyrosine benzyl ester] | 6.9 ± 0.8 s | 9.0 ± 0.9 s | 9.1 ± 1.4 s |  |  |  |  |  |  | 11.9 ± 1.7 | Analgetic effect, % [1]: 36.1%; C, % to the control [1]: 63.9%; Analgesia (%) ("hot plate" test in mice; 30 minutes): 68.3%; Latent time of NT (%) ("hot plate" test in mice; 30 minutes): 168.3%; Analgesia (%) ("hot plate" test in mice; 60 minutes): 113.8%; Latent time of NT (%) ("hot plate" test in mice; 60 minutes): 213.8%; Analgesia (%) ("hot plate" test in mice; 120 minutes): 121.9%; Latent time of NT (%) ("hot plate" test in mice; 120 minutes): 221.9%
4 | CNCCC(Oc1ccc(C(F)(F)F)cc1)c1ccccc1 (centres unmarked) [Fluoxetin, reference compound] |  |  |  |  |  |  |  |  |  |  | % change from the control (mice, forced swimming): −33%
5 | COc1cccc(C2(O)CCCCC2CN(C)C)c1 (centres unmarked) [Tramal, reference compound] |  |  |  |  |  |  |  |  |  |  | Analgetic effect, % [2]: 53%
